According to publication PMC4410475, “Discovery and anti-cancer evaluation of two novel non-ATP-competitive FGFR1 inhibitors in non-small-cell lung cancer” (BMC Cancer, 2015):
pIC50: −log10 of the molar value.

Legend:
Type in all cases: biochemical
FGFR1 [1] = biological target: T1, FGFR1 (Homo sapiens, UniProt P11362); test: Caliper mobility shift kinase assay with recombinant FGFR1, ATP at Km ([…])
FGFR1 [2] = biological target: T1, FGFR1; test: Caliper mobility shift kinase assay with recombinant FGFR1, also at varied ATP concentrations
FGFR3 = FGFR3 (Homo sapiens, UniProt P22607); test: cell-free kinase assay (authors' own, called previous); conditions: cited from earlier work
Sequence of FGFR3 (P22607 23-806): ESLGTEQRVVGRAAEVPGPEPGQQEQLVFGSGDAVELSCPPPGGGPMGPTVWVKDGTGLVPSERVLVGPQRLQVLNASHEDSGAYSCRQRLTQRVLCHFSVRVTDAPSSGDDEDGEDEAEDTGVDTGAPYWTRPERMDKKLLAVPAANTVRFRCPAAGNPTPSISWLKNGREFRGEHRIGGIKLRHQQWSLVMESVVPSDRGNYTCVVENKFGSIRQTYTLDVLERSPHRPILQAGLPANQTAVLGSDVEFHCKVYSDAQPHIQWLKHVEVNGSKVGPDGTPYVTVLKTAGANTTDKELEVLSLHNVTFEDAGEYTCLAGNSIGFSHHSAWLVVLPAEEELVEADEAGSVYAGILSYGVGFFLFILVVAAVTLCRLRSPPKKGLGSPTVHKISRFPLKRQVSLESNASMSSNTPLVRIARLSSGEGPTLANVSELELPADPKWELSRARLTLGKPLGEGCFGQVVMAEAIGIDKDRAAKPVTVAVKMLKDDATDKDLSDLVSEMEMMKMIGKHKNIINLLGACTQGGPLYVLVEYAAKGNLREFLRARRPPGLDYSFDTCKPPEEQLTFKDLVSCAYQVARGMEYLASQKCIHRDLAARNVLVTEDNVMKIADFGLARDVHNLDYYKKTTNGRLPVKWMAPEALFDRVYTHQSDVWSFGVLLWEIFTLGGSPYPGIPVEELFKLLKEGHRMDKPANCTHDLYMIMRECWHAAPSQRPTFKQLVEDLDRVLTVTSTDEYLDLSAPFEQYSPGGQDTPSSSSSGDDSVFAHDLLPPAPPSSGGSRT

T1 sequence (P11362 22-822): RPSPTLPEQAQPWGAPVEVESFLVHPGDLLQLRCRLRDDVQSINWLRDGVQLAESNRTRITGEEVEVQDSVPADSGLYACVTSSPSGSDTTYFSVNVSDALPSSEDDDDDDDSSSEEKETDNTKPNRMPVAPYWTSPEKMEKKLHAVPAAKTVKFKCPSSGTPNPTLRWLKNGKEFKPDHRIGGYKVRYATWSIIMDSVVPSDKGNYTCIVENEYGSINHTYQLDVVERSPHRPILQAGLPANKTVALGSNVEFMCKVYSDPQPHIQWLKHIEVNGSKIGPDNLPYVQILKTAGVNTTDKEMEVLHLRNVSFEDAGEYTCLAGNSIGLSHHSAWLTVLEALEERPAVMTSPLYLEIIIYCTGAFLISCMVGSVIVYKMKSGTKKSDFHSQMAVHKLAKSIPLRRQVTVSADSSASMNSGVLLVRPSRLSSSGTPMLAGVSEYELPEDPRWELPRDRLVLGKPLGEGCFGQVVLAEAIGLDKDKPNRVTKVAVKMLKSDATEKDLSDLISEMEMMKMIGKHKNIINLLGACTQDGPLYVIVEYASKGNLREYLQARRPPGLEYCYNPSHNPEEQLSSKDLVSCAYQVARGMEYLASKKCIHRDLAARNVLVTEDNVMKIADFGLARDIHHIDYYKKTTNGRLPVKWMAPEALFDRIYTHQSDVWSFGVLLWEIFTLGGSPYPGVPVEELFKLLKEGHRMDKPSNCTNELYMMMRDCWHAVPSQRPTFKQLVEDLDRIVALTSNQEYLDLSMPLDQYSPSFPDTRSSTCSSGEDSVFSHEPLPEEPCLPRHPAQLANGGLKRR

Structure (SMILES) | pIC50 (FGFR1 [1]) | pIC50 (FGFR1 [2]) | pIC50 (FGFR3)
O=C1/C(=C/c2ccc(O)c(O)c2)CSC/C1=C\c1ccc(O)c(O)c1 [Ad23, 3,5-bis(3,4-dihydroxybenzylidene)-tetrahydrothiopyran-4-one] | 6.22 | – | –
O=C1/C(=C/c2ccc(O)c(O)c2)COC/C1=C\c1ccc(O)c(O)c1 [Af23, 3,5-bis(3,4-dihydroxybenzylidene)-tetrahydropyran-4-one] | 5.85 | – | –
CC(Cc1ccc(O)c(O)c1)C(C)Cc1ccc(O)c(O)c1 (stereo not shown) [NDGA, nordihydroguaiaretic acid] | – | 4.61 | 4.14
